Reference: PubChem BioAssay AID2060609 (Molecular Pharmacology Branch, DTP, NCI, 2025)

System: 855422-203-R-J1-PDC complex spheroids, viability
Test: Anticancer human tumor 855422-203-R-J1-PDC patient-derived bladder carcinoma cell line growth inhibition [CLK]
Conditions: for IC50: curve of first compound; for viability, T/C: stronger effect = lower value; active means viability on the fitted dose curve at most 10% of control; inactive means the rest
Description: A high-throughput screen of multi-cell type tumor spheroids was designed to identify active combinations of […] and targeted small molecules. Complex spheroids include a stromal component modeled by human endothelial cells (HUVEC) and fibroblasts modeled by human mesenchymal stem cells (MSCs). The concentration ranges selected for each drug and investigational agent were based upon clinically achievable concentrations if the clinical Cmax of the agent was known.
Compounds. The drugs and investigational agents: cirtuvivint (SM08502; NSC835563), CC-671 (NSC850746), vemurafenib (NSC761431), tapotoclax (NSC804041), sotorasib (NSC818433), adagrasib (NSC831453), MRTX-1133 (NSC836407), BAY2416964 (NSC825713), copanlisib (NSC816437), inavolisib (NSC800729), abemaciclib (NSC768073), osimertinib (NSC779217), entinostat (NSC756642), eltanexor (KPT-8602, NSC794443), venetoclax (NSC766270), ceralasertib (NSC777638), bortezomib (NSC756655), olaparib (NSC753686), talazoparib (NSC767125), alisertib (NSC759677), peposertib (NSC802822), gemcitabine (NSC613327), 5-fluorouracil (NSC19893), SN-38 (NSC673596), oxaliplatin (NSC266046), paclitaxel (NSC125973), and doxorubicin (NSC123127), were obtained from the National Cancer Institute (NCI) Developmental Therapeutics Program Chemical Repository. The FDA-approved anticancer drug set is available from the Developmental Therapeutics Program at https://dtp.cancer.gov/organization/dscb/obtaining/available plates.htm. […] The stock solutions were prepared in dimethyl sulfoxide (DMSO, Sigma-Aldrich, St. Louis, MO, cat. D2650), except for the platinum complexes which were prepared in saline (Quality Biological, Gaithersburg, MD, cat. 114-055-101), at 800-fold the tested concentration and stored at -70 degrees C prior to their use. All drugs and investigational agents were tested over a range starting from a high concentration at or near the clinical Cmax and decreasing in half-log increments. If the clinical Cmax for an agent had not been determined, the highest concentration tested was 10 microM.
Cell Culture. All cells were maintained in an incubator at 37 degrees C and 5% CO2 with 95% humidity. The PDC lines were cultured according to standard operating procedures established by the NCI PDMR. Briefly, all PDCs were thawed and cultured in Matrigel-coated flasks prepared with a working solution of 1X Ham's F-12 nutrient mix, without supplementation (Invitrogen, Waltham, MA, cat. 11765054), 100 U/mL penicillin-streptomycin (Invitrogen, cat. 15140122), and 2.5% Matrigel (Corning Inc., Corning, NY, cat. 354248) for the first three passages. The 947758-054-R-J2-PDC line was cultured in 6B/Colon 1A media, which includes advanced DMEM/F-12 (Thermo Fisher Scientific, cat. 12634028), 10 mM HEPES (Thermo Fisher Scientific, cat. 15630080), 1X GlutaMAX supplement (Thermo Fisher Scientific, cat. 35050061), 0.1 mg/mL primocin (InvivoGen, cat. ant-pm-2), 10% defined fetal bovine serum, heat inactivated (HyClone Laboratories Inc., cat. SH30070.03HI), 1.25 mM N-Acetyl-L-cysteine (Sigma-Aldrich, cat. A9165), 10 mM nicotinamide (Sigma-Aldrich, cat. N0636), 1X B-27 supplement (Thermo Fisher Scientific, cat. 17504044), 1X N-2 supplement (Thermo Fisher Scientific, cat. 17502048), and 10 microM Y-27632 dihydrochloride (Tocris Bioscience, cat. 1254). The 876862-298-R-J1-PDC was cultured in 6E media, which includes all 6B/Colon 1A media components plus 50% L-WRN conditioned media (ATCC, cat. CRL-3276), 50 ng/mL recombinant human EGF recombinant protein (hEGF; Thermo Fisher Scientific, cat. PHG0311), 10 ng/mL recombinant human fibroblast growth factor 10 (hGFG-10; PeproTech, cat. 100-26), 1 ng/mL recombinant human fibroblast growth factor 2 (hFGF-2; PeproTech, cat. 100-18B), and 1 µM prostaglandin E2 (PGE2; Tocris, cat. 2296). The 227483-062-R1-J1-PDC line was cultured in Panc media, containing all 6E components except hFGF-2, with the addition of 500 nM SB-431542 (Selleckchem, cat. S1067) and 10 nM gastrin (Tocris, cat. 3006). […]

[1] = second compound 0.0316 µM, first compound 0.0316 µM
[2] = second compound 0.0316 µM, first compound 0.1 µM
[3] = second compound 0.0316 µM, first compound 0.316 µM
[4] = second compound 0.0316 µM, first compound 1 µM
[5] = second compound 0.0316 µM, first compound 3.16 µM
[6] = second compound 0.0316 µM, first compound 10 µM
[7] = second compound 0.1 µM, first compound 0.0316 µM
[8] = second compound 0.1 µM, first compound 0.1 µM
[9] = second compound 0.1 µM, first compound 0.316 µM
[10] = second compound 0.1 µM, first compound 1 µM
[11] = second compound 0.1 µM, first compound 3.16 µM
[12] = second compound 0.1 µM, first compound 10 µM
[13] = second compound 0.316 µM, first compound 0.0316 µM
[14] = second compound 0.316 µM, first compound 0.1 µM
[15] = second compound 0.316 µM, first compound 0.316 µM
[16] = second compound 0.316 µM, first compound 1 µM
[17] = second compound 0.316 µM, first compound 3.16 µM
[18] = second compound 0.316 µM, first compound 10 µM
[19] = second compound 1 µM, first compound 0.0316 µM
[20] = second compound 1 µM, first compound 0.1 µM
[21] = second compound 1 µM, first compound 0.316 µM
[22] = second compound 1 µM, first compound 1 µM
[23] = second compound 1 µM, first compound 3.16 µM
[24] = second compound 1 µM, first compound 10 µM
[25] = second compound 3.16 µM, first compound 0.0316 µM
[26] = second compound 3.16 µM, first compound 0.1 µM
[27] = second compound 3.16 µM, first compound 0.316 µM
[28] = second compound 3.16 µM, first compound 1 µM
[29] = second compound 3.16 µM, first compound 3.16 µM
[30] = second compound 3.16 µM, first compound 10 µM
[31] = second compound 10 µM, first compound 0.0316 µM
[32] = second compound 10 µM, first compound 0.1 µM
[33] = second compound 10 µM, first compound 0.316 µM
[34] = second compound 10 µM, first compound 1 µM
[35] = second compound 10 µM, first compound 3.16 µM
[36] = second compound 10 µM, first compound 10 µM
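Further: spheroids exposed to drugs for seven days before readout.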
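Wherever viability, T/C is given: 100% = DMSO vehicle control wells.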

C#Cc1c(F)ccc2cc(O)cc(-c3ncc4c(N5CC6CCC(C5)N6)nc(OCC56CCCN5CC(F)C6)nc4c3F)c12 (centres undefined) + CN1CCN(c2cc(C(=O)Nc3cc4cc(-c5cnn(C)c5)ccc4cn3)ccn2)CC1
inactive: viability, T/C [1] 106% | viability, T/C [2] 98.8% | viability, T/C [3] 119% | viability, T/C [4] 98.8% | viability, T/C [5] 104% | viability, T/C [6] 113% | viability, T/C [7] 84.4% | viability, T/C [8] 84.4% | viability, T/C [9] 85.1% | viability, T/C [10] 89.2% | viability, T/C [11] 93.3% | viability, T/C [12] 81.9% | viability, T/C [13] 13% | viability, T/C [14] 12.4% | viability, T/C [15] 14.8% | viability, T/C [16] 15.1% | viability, T/C [17] 14.9% | viability, T/C [18] 8.68%
> 10000 nM: IC50 (second compound 0.0316 µM) | IC50 (second compound 0.1 µM)
< 31.6 nM: IC50 (second compound 0.316 µM) | IC50 (second compound 1 µM) | IC50 (second compound 3.16 µM) | IC50 (second compound 10 µM)
active: viability, T/C [19] 0.86% | viability, T/C [20] 0.58% | viability, T/C [21] 0.22% | viability, T/C [22] 0.24% | viability, T/C [23] 0.22% | viability, T/C [24] 0.17% | viability, T/C [25] 0.39% | viability, T/C [26] 0.72% | viability, T/C [27] 0.49% | viability, T/C [28] 0.38% | viability, T/C [29] 1.64% | viability, T/C [30] 0.18% | viability, T/C [31] 0.42% | viability, T/C [32] 0.85% | viability, T/C [33] 0.3% | viability, T/C [34] 0.35% | viability, T/C [35] 0.3% | viability, T/C [36] 0.2%

C=C(F)C(=O)N1CCN(c2nc(OCC3CCCN3C)nc3c2CCN(c2cccc4cccc(Cl)c24)C3)CC1CC#N (centres undefined) + CN1CCN(c2cc(C(=O)Nc3cc4cc(-c5cnn(C)c5)ccc4cn3)ccn2)CC1
< 31.6 nM: IC50 (second compound 0.316 µM) | IC50 (second compound 1 µM) | IC50 (second compound 3.16 µM) | IC50 (second compound 10 µM)
1980 nM: IC50 (second compound 0.1 µM)
active: viability, T/C [6] 0.22% | viability, T/C [12] 0.8% | viability, T/C [16] 14.6% | viability, T/C [17] 4.45% | viability, T/C [18] 0.07% | viability, T/C [19] 0.29% | viability, T/C [20] 0.34% | viability, T/C [21] 0.28% | viability, T/C [22] 0.26% | viability, T/C [23] 0.12% | viability, T/C [24] 1.08% | viability, T/C [25] 0.68% | viability, T/C [26] 0.91% | viability, T/C [27] 0.57% | viability, T/C [28] 0.77% | viability, T/C [29] 1.08% | viability, T/C [30] 0.11% | viability, T/C [31] 0.54% | viability, T/C [32] 0.51% | viability, T/C [33] 0.41% | viability, T/C [34] 0.42% | viability, T/C [35] 0.61% | viability, T/C [36] 0.22%
inactive: viability, T/C [1] 108% | viability, T/C [2] 110% | viability, T/C [3] 122% | viability, T/C [4] 115% | viability, T/C [5] 32% | viability, T/C [7] 89.1% | viability, T/C [8] 86% | viability, T/C [9] 87.3% | viability, T/C [10] 95.1% | viability, T/C [11] 22.8% | viability, T/C [13] 14.2% | viability, T/C [14] 14.4% | viability, T/C [15] 14.8%
2460 nM: IC50 (second compound 0.0316 µM)
